# Earlier results as cited in patent publication US9364497B2, “Treatment of cognitive disorders” (Isis Innovation Limited, priority 2010, dated 2016).
# Assays:
# [1] = test system: normal participants with baseline tHcy levels >13 μmol/L; details: 0.8 mg/d for three years
# [2] = test system: subjects with mild cognitive impairment; details: MCI
# [3] = test system: mild cognitive impairment; details: MCI; over four years
smiles,measurement,setting,value
Nc1nc2ncc(CNc3ccc(C(=O)N[C@@H](CCC(=O)O)C(=O)O)cc3)nc2c(=O)[nH]1 [folic acid],effect on cognitive tests,[1],beneficial effect on several cognitive tests
COc1ccc2c3c1O[C@H]1C[C@@H](O)C=C[C@@]31CCN(C)C2 [galantamine],deaths in treatment groups versus placebo,[2],significantly greater number of deaths
CCN(C)C(=O)Oc1cccc([C@H](C)N(C)C)c1 [rivastigmine],benefit on cognitive function,[3],no significant benefit
same,benefit on the progression rate to Alzheimer's Disease,[3],no significant benefit
